Reference: the NIST ThermoML archive (doi:10.1016/j.tca.2010.11.011)
Numbers after ± are expanded uncertainties.

Key:
[1] = DTA; for Normal melting temperature: Crystal; for Triple point temperature: Crystal 2
[2] = Molar enthalpy of transition or fusion; conditions: DSC

Normal melting temperature [1] [°C]	Molar enthalpy of transition or fusion ([2]; Crystal) [kcal/mol]	Triple point temperature [1] [K]	Molar enthalpy of transition or fusion ([2]; Crystal 2) [kcal/mol]	SMILES
153.00 ± 4	9.08 ± 0.239	–	–	O=C(O)CCCCC(=O)O [1,6-hexanedioic acid]
132.00 ± 4	11 ± 0.287	–	–	O=C(O)CCCCCCCCC(=O)O [1,10-decanedioic acid]
–	–	458.15 ± 1	9.26 ± 0.263	CC(CO)(CO)C(=O)O [2,2-bis(hydroxymethyl)propanoic acid]
–	–	405.15 ± 1	8.25 ± 0.232	NC(CO)(CO)CO [2-amino-2-(hydroxymethyl)-1,3-propanediol]
135.00 ± 8	6.52 ± 0.194	–	–	O=C(O)/C=C\C(=O)O [cis-1,4-butenedioic acid]
142.00 ± 1	7.89 ± 0.232	–	–	COC(=O)c1ccc(C(=O)OC)cc1 [dimethyl 1,4-benzenedicarboxylate]
131.00 ± 1	5.63 ± 0.177	–	–	O=C1OC(=O)c2ccccc21 [isobenzofuran-1,3-dione]
